{"source": "paper PMC4512978", "about": "“Synthesis and evaluation in rats of homologous series of [^18F]-labeled dopamine D2/3 receptor agonists based on the 2-aminomethylchroman scaffold as potential PET tracers” (EJNMMI Research, 2015)", "key": {"D2/3R [1]": {"system": "D2/3R", "test": "MicroPET study in rats", "assay_type": "in vivo, Sprague-Dawley rats", "settings": "saline pre-treated rats; peak (45 min post-injection for [^18F]FEt-AMC13 and [^11C]raclopride)", "method": "Animal experiments were performed by licensed investigators in compliance with the Law on Animal Experiments of The Netherlands. The protocol was approved by the Committee on Animal Ethics of the University of Groningen. Young male (10–12 weeks of age, 300–350 g body weight) Sprague-Dawley rats (Harlan, the Netherlands) were used for all experiments. The rats were maintained at a 12-h light/12-h dark regime and were fed standard laboratory chow ad libitum.\nDistribution of the radiotracers was studied in rats pre-treated, at random, with physiological saline (controls) or raclopride tartrate (1 mg/kg calculated per raclopride base, equivalent to 2.9 μmol/kg). Saline and raclopride were administered intravenously (1 mL/kg injected volume).\nAn additional group of saline pre-treated rats, injected with [^11C]raclopride, served as positive controls for D2/3R-specific brain uptake.\nTwo rats were scanned simultaneously. Before all manipulations, animals were anesthetized with a mixture of isoflurane/air (inhalation anesthesia, 5 % ratio during induction, 2 % at maintenance). Cannulae were placed into the rats’ left femoral arteries and veins; the operation took 45–50 min. The rats were positioned supine inside the camera (Focus 220 microPET, Siemens-Concorde), one above the other with their heads in the camera’s field of view. A 515-s transmission scan with a Co-57 point source was performed. Tracer was injected through the venous cannula as a slow bolus (1 mL volume, 60 s long) using an infusion pump. The second (upper) animal was injected 16 min after the first (lower).\nPET acquisition was started during the injection of radioactivity in the first rat. A 106-min long (76 min long in the case of [^11C]raclopride) list-mode acquisition protocol was used for the scan.\nList-mode data from the 106-min-long and 76-min-long scans were reframed into, respectively, 90-min-long and 60-min-long dynamic sequences of 6 × 10, 4 × 30, 2 × 60, 1 × 120, 1 × 180, 4 × 300, 3 × 600, and (for 90-min-long scans) 2 × 900 s frames. The data were reconstructed per time frame using an iterative reconstruction algorithm (attenuation-weighted 2-dimensional ordered-subset expectation maximization, provided by Siemens; 4 iterations, 16 subsets; zoom factor 2). Datasets were fully corrected for random coincidences, scatter, and attenuation. Data from the transmission scan were used for attenuation correction. The final datasets consisted of 95 slices, with a slice thickness of 0.8 mm and an in-plane image matrix size of 128 × 128 and pixel size of 0.47 × 0.47 mm.\nReconstructed images were analyzed with Inveon 2.0 software (Siemens Medical Solutions, USA, Inc). Regions of interest (ROIs) were drawn manually on a T2-weighted MRI template of rat brain around the striatum, brainstem, cortex, hippocampus, hypothalamus, thalamus, olfactory bulbs, and cerebellum around the whole brain and around the pituitary gland. The MRI template was co-registered with the PET scan by image fusion. The time-activity curves (TAC) per ROI were determined in Bq/cm^3 units and converted into standardized uptake values (SUVs).\n(§1) Degree of D2/3R-specific binding of the tracers was characterized by BPND (as given above) or the specific binding ratio (SBR) given as target region activity/cerebellar activity - 1. Both were calculated under control conditions and in response to the raclopride challenge."}, "[2]": {"system": "D2/3R against serotonin-1A and adrenergic α1 receptors", "set-up": "method as in PMID 9435894", "settings": "cited from earlier work"}, "D2/3R [3]": {"system": "D2/3R", "settings": "cited from earlier work; for displacement of apparent D2/3R-specific striatal uptake: Sprague-Dawley rats, 1–2 mg/kg (2.9–5.8 μmol/kg) raclopride"}, "[4]": {"test": "LogD measurement (n-octanol/phosphate buffer)", "assay_type": "physicochemical", "settings": "n-octanol / 1 M phosphate buffer pH 7.4", "method": "LogD of the tracers was measured using the radioactivity remaining on the HLB SPE cartridges after their elution with ethanol during the tracer formulation procedure (see above). The cartridge was dried with nitrogen for 5 min and eluted with at least 1.5 mL n-octanol. A 500 μL portion of octanol eluate was mixed with 500 μL of 1 M phosphate buffer (pH 7.4) and vigorously vortexed for 5 min. The mixture was then centrifuged at 17,000g for 10 min and 3 × 100 μL aliquots of organic and aqueous phase were loaded into a gamma-counter for radioactivity measurement. To correct for possible presence of radioactive impurities in the tracer, aliquots of organic and aqueous phases were later analyzed by radio-TLC, and the counts obtained from the gamma-counter were corrected according to the percentage of impurities found in aqueous and organic phases. LogD was calculated with the following formula: LogD=lgCPMorg×Xorgtracer/CPMaq×Xaqtracer,\nwhere CPMorg is the mean radioactivity of the organic aliquots, Xorgtracer is the mean percentage of radioactivity accounting for intact tracer in organic aliquots (as determined from radio-TLC), and CPMaq and Xaqtracer are the corresponding values for the aqueous phase.\nFor each tracer batch used for logD determination, the experiment was performed in duplicate. LogD values are means calculated from at least two independent experiments."}, "D2/3R [5]": {"system": "D2/3R", "test": "In vitro autoradiography of rat brain slices", "assay_type": "binding, Sprague-Dawley rats", "settings": "for Striatal SBR % change relative to control condition, Raclopride / Striatal SBR, Raclopride: with 10 μM raclopride; for Striatal SBR % change relative to control condition, GTP / Striatal SBR, GTP: with 100 μM GTP", "method": "In vitro autoradiography assay was performed as previously described. Frozen brains of young (10–12 weeks of age; 300–350 g body weight) male Sprague-Dawley rats (Harlan, Netherlands) were cut at −12 °C into sagittal slices 20 μm thick using a Leica microtome, and the slices were thaw-mounted on Superfrost (70 × 22 mm, Fischer) adhesive slides. Only slices containing both striatal and cerebellar regions were used. The slides with slices mounted them were allowed to dry, then put into storage boxes with silica gel bags and stored at −80 °C.\nOn the day of the experiment (within 1 week from the preparation of the slices), the slides were taken out of storage and allowed to come to room temperature for 5–10 min. Then, 1–1.2 mL of incubation buffer (50 mM Tris-HCl, 5 mM KCl, 2 mM CaCl2, 2 mM MgCl2, 120 mM NaCl, pH 7.4 25 °C) was applied per slide, and the slides were pre-incubated for 15 min at room temperature. The buffer was then removed, and the slides were placed into staining jars containing radioligand solution (concentration range of 0.1–10 nM) in the incubation buffer with or without 10 μM raclopride (D2/3 antagonist) or 100 μM guanosine-5'-triphosphate sodium salt (GTP, stimulator of G-protein uncoupling from the receptors). After 35 min of incubation at 37 °C, slides were washed once with ice-cold incubation buffer (3.5 min) and dipped for 30 s into ice-cold distilled water to remove buffer salts.\nAfter drying the slides in a stream of room-temperature air, they were exposed on phosphor storage screens for 6–10 h. The storage screens were read by Cyclone Storage Phosphor System (Packard Instruments Co.). Quantification of plate readings was done with OptiQuant software (version 3.00, Packard Instruments Co.).\nas §1"}, "D2/3R [6]": {"system": "D2/3R", "test": "Kinetic analysis of PET data (1TCM, 2TCM, Logan, SRTM)", "assay_type": "in vivo, Sprague-Dawley rats", "settings": "1 mg/kg raclopride, measured with [^18F]FEt-AMC13", "method": "Kinetic analysis is described using the nomenclature proposed by Innis et al.. ROI TACs of [^18F]FEt-AMC13 were analyzed with one-tissue and two-tissue compartmental models of reversible binding (1TCM and 2TCM, respectively) to obtain individual rate constants. From these, the regional distribution volumes (VT) were calculated and compared to those obtained with Logan graphical analysis. Binding potentials (BPND) were calculated from the distribution ratios as VT (target) / VT (cerebellum) – 1, or estimated with the simplified reference tissue model (SRTM) using the cerebellum as reference region.\nMetabolite-corrected plasma-derived arterial input function and whole blood time-activity curve were used for Logan, 1TCM, and 2TCM analyses. Fractional cerebral blood volume was set to 3.6 % [27]. For one rat in the raclopride-treated group, no input curves could be obtained; therefore, its PET data were only analyzed with SRTM.\nas §1"}}}
{"molecule": "CCN1CCC[C@H]1CNC(=O)c1c(O)c(Cl)cc(Cl)c1O[11CH3]", "note": "(racemic) [[^11C]raclopride, reference compound]", "values": [{"measurement": "Striatum-to-cerebellum uptake ratio (PET)", "setting": "D2/3R [1]", "result": "7.45 ± 1.60"}]}
{"molecule": "Oc1ccc2c(c1)O[C@@H](CNCc1ccccc1)CC2", "note": "[(R)-2-[(benzylamino)methyl]chroman-7-ol]", "values": [{"measurement": "selectivity", "setting": "[2]", "result": "selective for D2/3R against serotonin-1A and adrenergic α1 receptors"}]}
{"molecule": "CCCN1CCc2cc(O[11CH3])cc3c2C1Cc1ccc(O)c(O)c1-3", "note": "(stereo not shown) [[^11C]MNPA]", "values": [{"measurement": "displacement of apparent D2/3R-specific striatal uptake", "setting": "D2/3R [3]", "result": "> 90", "unit": "%"}]}
{"molecule": "CC[11CH2]N1CCO[C@@H]2c3cc(O)ccc3CCC21", "note": "(stereo partly shown) [[^11C]PHNO]", "values": [{"measurement": "displacement of apparent D2/3R-specific uptake", "setting": "D2/3R [3]; 0.2 mg/kg (0.58 μmol/kg) raclopride", "result": "over 80%"}, {"measurement": "displacement of apparent D2/3R-specific striatal uptake", "setting": "D2/3R [3]", "result": "> 90", "unit": "%"}]}
{"molecule": "CCCN(CCC[18F])C1CCc2c(O)cccc2C1", "note": "(stereo not shown) [[^18F]5-OH-FPPAT]", "values": [{"measurement": "striatum-to-cerebellum ratio", "setting": "D2/3R [3]; rats", "result": 2}]}
{"molecule": "Oc1ccc2c(c1)O[C@@H](CNCCN1CCN(c3ccc(OCCCC[18F])cc3)CC1)CC2", "note": "[[^18F]FBu-AMC15]", "values": [{"measurement": "logD", "setting": "[4]", "result": "2.71 ± 0.07"}, {"measurement": "Striatal SBR % change relative to control condition, Raclopride", "setting": "D2/3R [5]", "result": "−64", "unit": "%"}, {"measurement": "Striatal SBR, Raclopride", "setting": "D2/3R [5]", "result": "0.25 ± 0.23"}, {"measurement": "Striatal SBR % change relative to control condition, GTP", "setting": "D2/3R [5]", "result": "−67", "unit": "%"}, {"measurement": "Striatal SBR, GTP", "setting": "D2/3R [5]", "result": "0.23 ± 0.23"}]}
{"molecule": "Oc1ccc2c(c1)O[C@@H](CNCc1ccc(OCCC[18F])cc1)CC2", "note": "[[^18F]FPr-AMC13]", "values": [{"measurement": "logD", "setting": "[4]", "result": "1.98 ± 0.08"}, {"measurement": "Striatal SBR % change relative to control condition, Raclopride", "setting": "D2/3R [5]", "result": "−80", "unit": "%"}, {"measurement": "Striatal SBR, Raclopride", "setting": "D2/3R [5]", "result": "0.41 ± 0.23"}, {"measurement": "Striatal SBR % change relative to control condition, GTP", "setting": "D2/3R [5]", "result": "−80", "unit": "%"}, {"measurement": "Striatal SBR, GTP", "setting": "D2/3R [5]", "result": "0.42 ± 0.23"}]}
{"molecule": "Oc1ccc2c(c1)O[C@@H](CNCCN1CCN(c3ccc(OCCC[18F])cc3)CC1)CC2", "note": "[[^18F]FPr-AMC15]", "values": [{"measurement": "logD", "setting": "[4]", "result": "2.39 ± 0.001"}, {"measurement": "Striatal SBR % change relative to control condition, Raclopride", "setting": "D2/3R [5]", "result": "−61", "unit": "%"}, {"measurement": "Striatal SBR, Raclopride", "setting": "D2/3R [5]", "result": "0.39 ± 0.22"}, {"measurement": "Striatal SBR % change relative to control condition, GTP", "setting": "D2/3R [5]", "result": "−63", "unit": "%"}, {"measurement": "Striatal SBR, GTP", "setting": "D2/3R [5]", "result": "0.37 ± 0.24"}]}
{"molecule": "CCN1CCC[C@H]1CNC(=O)c1c(O)c(Cl)cc(Cl)c1OC", "note": "[raclopride, reference compound]", "values": [{"measurement": "raclopride-induced D2/3R occupancy (modified Lassen plot)", "setting": "D2/3R [6]", "result": "20–25%"}]}
